Data as given in ChEMBL document CHEMBL6114952, “Synthesis and antitumor effects of novel betulinic acid derivatives bearing electrophilic moieties” (Bioorg Med Chem, 2025).

Tests used:
Assay type in all cases: functional, cell-based
[1] = tested on: HeLa; test: Antiproliferative activity against human HeLa cells assessed as inhibition of cell proliferation incubated for 48 hrs by MTT assay
[2] = tested on: MDA-MB-231; test: Antiproliferative activity against human MDA-MB-231 cells assessed as inhibition of cell proliferation incubated for 48 hrs by MTT assay; conditions: MDA-MB-231, 48 h
[3] = tested on: MCF7; test: Antiproliferative activity against human MCF7 cells assessed as inhibition of cell proliferation incubated for 48 hrs by MTT assay; conditions: MCF7, 48 h

| Structure (SMILES) | IC50 [1] [µM] | IC50 [2] [µM] | IC50 [3] [µM] |
| --- | --- | --- | --- |
| C=CCNC(=O)[C@]12CC[C@@H](C(=C)C)[C@@H]1[C@H]1CC[C@@H]3[C@@]4(C)CC[C@H](OC(=O)N5CCN(C(=O)CCl)CC5)C(C)(C)[C@@H]4CC[C@@]3(C)[C@]1(C)CC2 | 17.2 | 18 | 16.7 |
| C=C(C)[C@@H]1CC[C@]2(C(=O)O)CC[C@]3(C)[C@H](CC[C@@H]4[C@@]5(C)CC[C@H](OC(=O)C(Cl)Cl)C(C)(C)[C@@H]5CC[C@]43C)[C@@H]12 | 66.2 | 35.7 | 51.5 |
| C=CC(=O)O[C@H]1CC[C@]2(C)[C@H]3CC[C@@H]4[C@H]5[C@H](C(=C)C)CC[C@]5(C(=O)O)CC[C@@]4(C)[C@]3(C)CC[C@H]2C1(C)C | 33.5 | 30.9 | 35.3 |
| C=C(C)[C@@H]1CC[C@]2(C(=O)N3CCNCC3)CC[C@]3(C)[C@H](CC[C@@H]4[C@@]5(C)CCC(=O)C(C)(C)[C@@H]5CC[C@]43C)[C@@H]12 | 3.04 | 3 | 3.94 |
| C=C(C)[C@@H]1CC[C@]2(C(=O)O)CC[C@]3(C)[C@H](CC[C@@H]4[C@@]5(C)CC[C@H](OC(=O)CC)C(C)(C)[C@@H]5CC[C@]43C)[C@@H]12 | 39.4 | 30.9 | 45.1 |
| C=C(C)[C@@H]1CC[C@]2(C(=O)O)CC[C@]3(C)[C@H](CC[C@@H]4[C@@]5(C)CC[C@H](OC(=O)NCCNC(=O)CCl)C(C)(C)[C@@H]5CC[C@]43C)[C@@H]12 | 8.73 | 9.64 | 6.81 |
| C=C(C)[C@@H]1CC[C@]2(C(=O)O)CC[C@]3(C)[C@H](CC[C@@H]4[C@@]5(C)CC[C@H](OC(C)=O)C(C)(C)[C@@H]5CC[C@]43C)[C@@H]12 | 32.1 | 35 | 43.6 |
| C=C(C)[C@@H]1CC[C@]2(C(=O)OCc3ccccc3)CC[C@]3(C)[C@H](CC[C@@H]4[C@@]5(C)CC[C@H](OC(=O)NC(=O)CCl)C(C)(C)[C@@H]5CC[C@]43C)[C@@H]12 | > 150 | > 150 | > 150 |
| C=C(C)[C@@H]1CC[C@]2(C(=O)OCc3ccccc3)CC[C@]3(C)[C@H](CC[C@@H]4[C@@]5(C)CC[C@@H](OC(=O)CCl)C(C)(C)[C@@H]5CC[C@]43C)[C@@H]12 | > 75 |  | > 75 |
| C=C(C)[C@@H]1CC[C@]2(C(=O)OC)CC[C@]3(C)[C@H](CC[C@@H]4[C@@]5(C)CC[C@H](OC(=O)CCl)C(C)(C)[C@@H]5CC[C@]43C)[C@@H]12 | > 75 | > 75 | > 75 |
| C=C(C)[C@@H]1CC[C@]2(C(=O)O)CC[C@]3(C)[C@H](CC[C@@H]4[C@@]5(C)CC[C@H](OC(=O)N6CCN(C(=O)C(F)(F)Cl)CC6)C(C)(C)[C@@H]5CC[C@]43C)[C@@H]12 | 31.3 | 26.3 | 30.7 |
| C=C(C)[C@@H]1CC[C@]2(C(=O)OCc3ccccc3)CC[C@]3(C)[C@H](CC[C@@H]4[C@@]5(C)CC[C@H](OC(=O)CCl)C(C)(C)[C@@H]5CC[C@]43C)[C@@H]12 | > 75 | > 75 | > 75 |
| C=C(C)[C@@H]1CC[C@]2(C(=O)O)CC[C@]3(C)[C@H](CC[C@@H]4[C@@]5(C)CC[C@@H](OC(=O)CCl)C(C)(C)[C@@H]5CC[C@]43C)[C@@H]12 | 16.9 |  | 17.1 |
| C=C(C)[C@@H]1CC[C@]2(C(=O)OCc3ccccc3)CC[C@]3(C)[C@H](CC[C@@H]4[C@@]5(C)CC[C@H](OC(=O)N6CCN(C(=O)CCl)CC6)C(C)(C)[C@@H]5CC[C@]43C)[C@@H]12 | > 100 | > 100 | > 100 |
| C=C(C)[C@@H]1CC[C@]2(C(=O)O)CC[C@]3(C)[C@H](CC[C@@H]4[C@@]5(C)CC[C@H](OC(=O)CBr)C(C)(C)[C@@H]5CC[C@]43C)[C@@H]12 | 18.7 | 18.6 | 17.5 |
| C=C(C)[C@@H]1CC[C@]2(C(=O)N3CCN(C)CC3)CC[C@]3(C)[C@H](CC[C@@H]4[C@@]5(C)CC[C@H](OC(=O)N6CCN(C(=O)CCl)CC6)C(C)(C)[C@@H]5CC[C@]43C)[C@@H]12 | 21.4 | 25.6 | 20.7 |
| C=C(C)[C@@H]1CC[C@]2(C(=O)N3CCN(C(=O)CCl)CC3)CC[C@]3(C)[C@H](CC[C@@H]4[C@@]5(C)CCC(=O)C(C)(C)[C@@H]5CC[C@]43C)[C@@H]12 | 2.01 |  | 2.52 |
| C=C(C)[C@@H]1CC[C@]2(C(=O)O)CC[C@]3(C)[C@H](CC[C@@H]4[C@@]5(C)CC[C@H](O)C(C)(C)[C@@H]5CC[C@]43C)[C@@H]12 [BETULINIC ACID] | 51.3 | 66 | 40.8 |
| C=C(C)[C@@H]1CC[C@]2(C(=O)O)CC[C@]3(C)[C@H](CC[C@@H]4[C@@]5(C)CC[C@H](OC(=O)CCl)C(C)(C)[C@@H]5CC[C@]43C)[C@@H]12 | 15.3 | 17.6 | 16.2 |
| C=C(C)[C@@H]1CC[C@]2(C(=O)N3CCN(C(C)=O)CC3)CC[C@]3(C)[C@H](CC[C@@H]4[C@@]5(C)CCC(=O)C(C)(C)[C@@H]5CC[C@]43C)[C@@H]12 | 30 | 36.3 | 29.9 |
| C=C(C)[C@@H]1CC[C@]2(C(=O)O)CC[C@]3(C)[C@H](CC[C@@H]4[C@@]5(C)CC[C@H](OC(=O)NCCCNC(=O)CCl)C(C)(C)[C@@H]5CC[C@]43C)[C@@H]12 | 7.34 | 8.48 | 7.25 |
| C=C(C)[C@@H]1CC[C@]2(C(=O)N3CCN(C(=O)CCl)CC3)CC[C@]3(C)[C@H](CC[C@@H]4[C@@]5(C)CC[C@H](OC(=O)Nc6ccccc6)C(C)(C)[C@@H]5CC[C@]43C)[C@@H]12 | > 100 | > 100 | > 100 |
| C=C(C)[C@@H]1CC[C@]2(C(=O)O)CC[C@]3(C)[C@H](CC[C@@H]4[C@@]5(C)CC[C@H](OC(=O)NCCCCNC(=O)CCl)C(C)(C)[C@@H]5CC[C@]43C)[C@@H]12 | 8.69 | 8.94 | 7.24 |
